Measurements reported in US5952189A (priority 1997, dated 1999).
Read-outs that look alike come from different tables or passages of the source.

Tested on: BT-20
Type: cell-based, human
Settings: for % DNA fragmentation: BT-20, UV 0.5 J/cm^2, 8 h, no inhibitor 44 ± 3.6

Q: Which results are given for C[C@H](NC(=O)OCc1ccccc1)C(=O)N[C@@H](C)C(=O)NC(Cc1ccccc1)B(O)O (stereo partly shown) [DK120, carbobenzoxy-ala-ala-borophe]?
A: % DNA fragmentation (inhibitor 0.2 μM): 5 ± 8.7%; % DNA fragmentation (inhibitor 1 μM): 0%; % DNA fragmentation (inhibitor 5 μM): 0%; Effect on UV-induced DNA fragmentation (summary of Table 2 (BT-20, 3T3, HL-60)): effectively blocked DNA fragmentation
